Reference: US20260242416A1, “ANTIMICROBIAL PEPTIDES” (priority 2023, published 2026)
Like-named read-outs stand apart in the source and are kept apart here. Where a SMILES comes first, the peptide text is derived from it.

Tests used:
[1] = test system: Salmonella enterica serovar Enteritidis (human clinical isolate); format: cell-based
Experimental: (§1) Bacteria were grown overnight at 37° C. in Mueller-Hinton Broth (MHB; Sigma-Aldrich, St. Louis. MO, USA) in a shaking incubator and aliquoted into cryovials with a 50% glycerol solution in a 1:1 ratio. No additives were added to the MHB during the growth of bacterial isolates. Glycerol stocks were stored at −80° C.
(§2) The antimicrobial activity of the putative AMPs was determined by a broth microdilution assay as described by the Clinical and Laboratory Standards Institute, with the published adaptations for testing of cationic peptides. Escherichia coli 25922 and Staphylococcus aureus 29213 isolates were purchased from the American Type Culture Collection (ATCC; Manassas, VA, USA). A human clinical isolate of Salmonella enterica serovar Enteritidis was provided by the BC Centre for Disease Control. Bacteria from stocks stored at −80° C. were streaked onto nonselective Columbia blood agar with 5% sheep blood (Oxoid) and incubated overnight at 37° C. Next, 2-4 colonies were streaked onto a new agar plate to ensure uniform health of colonies used in the broth microdilution assay. Isolated colonies were suspended in MHB and the optical density was measured with a spectrophotometer to create an initial inoculum concentration of approximately 1×10^8 cfu/mL. The inoculum was diluted 1:250 to a final concentration of 2-8×10^5 cfu/mL, which was confirmed by performing a Total Viability Count (TVC). The TVC consisted of plating a 1:1000 dilution of the final inoculum on nonselective media and was also used to confirm the health and purity of the inoculum in each trial.
(§3) Lyophilized 80 μg peptide aliquots synthesized by GenScript (Piscataway, NJ, USA) were resuspended to 1.28 mg/mL with UltraPure water (Thermo Fisher Scientific, Waltham, MA, USA) and serially diluted in polypropylene 96-well microtiter plates (Greiner Bio-One #650261, Kremsmunster, Austria) from 128 down to 0.5 μg/mL. Two columns per plate were reserved for growth and sterility controls. Inoculum was added to the wells containing the peptide and the growth control. Plates were incubated for 20-24 h at 37° C. The minimum inhibitory concentration (MIC) was determined as the lowest peptide concentration where there was no visible bacterial growth.

S. aureus ATCC 29213 = format: cell-based, Staphylococcus aureus
Experimental: as §1, §2, §3

E. coli ATCC 25922 = format: cell-based, Escherichia coli
Experimental: as §1, §2, §3

[2] = serovar Enteritidis (human clinical isolate)

CC[C@H](C)[C@H](NC(=O)[C@H](CC(C)C)NC(=O)CNC(=O)[C@H](Cc1c[nH]c2ccccc12)NC(=O)CN)C(=O)N[C@@H](CC(N)=O)C(=O)N[C@H](C(=O)N[C@@H](CCCCN)C(=O)N[C@H](C(=O)N1CCC[C@H]1C(=O)N1CCC[C@H]1C(=O)N[C@H](C(=O)N[C@@H](CC(C)C)C(=O)N[C@@H](Cc1c[nH]cn1)C(=O)N[C@@H](CCCCN)C(=O)N[C@H](C(=O)N[C@@H](CO)C(=O)N[C@H](C(=O)N1CCC[C@H]1C(=O)N[C@@H](CC(C)C)C(=O)N[C@H](C(=O)N[C@@H](CO)C(=O)N[C@@H](CCCCN)C(=O)N[C@@H](CCCNC(=N)N)C(=O)O)C(C)C)C(C)C)C(C)C)C(C)C)[C@@H](C)CC)[C@@H](C)CC [ApMe3] (H-GWGLINIKIPPVLHKVSVPLVSKR-OH; N-terminus and C-terminus assumed)
>128/>128/>128 ug/mL: MIC (ug/mL) S. Enteritidis [1, 2] | MIC (ug/mL) S. aureus (S. aureus ATCC 29213; ATCC 29213) | MIC (ug/mL) E. coli (E. coli ATCC 25922; ATCC 25922)

CC[C@H](C)[C@H](N)C(=O)N[C@H](C(=O)N[C@@H](CCC(=O)O)C(=O)N1CCC[C@H]1C(=O)N[C@H](C(=O)NCC(=O)N[C@H](C(=O)N[C@@H](CCCCN)C(=O)N[C@@H](C)C(=O)N1CCC[C@H]1C(=O)N[C@H](C(=O)N[C@@H](Cc1ccccc1)C(=O)N[C@H](C(=O)N[C@@H](CO)C(=O)N[C@@H](CCC(=O)O)C(=O)N[C@@H](CC(C)C)C(=O)N[C@@H](CCCNC(=N)N)C(=O)NCC(=O)NCC(=O)N[C@@H](Cc1c[nH]c2ccccc12)C(=O)N[C@@H](CC(C)C)C(=O)N[C@@H](CCCCN)C(=O)N[C@@H](CCCCN)C(=O)N[C@@H](CCCNC(=N)N)C(=O)O)[C@@H](C)O)[C@@H](C)O)[C@@H](C)O)C(C)C)[C@@H](C)O [PaVa3] (H-ITEPVGTKAPTFTSELRGGWLKKR-OH; N-terminus and C-terminus assumed)
>128/>128/>128 ug/mL: MIC (ug/mL) S. Enteritidis [1, 2] | MIC (ug/mL) S. aureus (S. aureus ATCC 29213; ATCC 29213) | MIC (ug/mL) E. coli (E. coli ATCC 25922; ATCC 25922)

CC[C@H](C)[C@H](NC(=O)[C@H](CS)NC(=O)[C@H](CCCNC(=N)N)NC(=O)[C@H](CS)NC(=O)[C@H](CO)NC(=O)[C@H](CCCNC(=N)N)NC(=O)[C@H](CO)NC(=O)[C@H](CO)NC(=O)[C@H](CO)NC(=O)CN)C(=O)N[C@@H](CCCNC(=N)N)C(=O)N[C@@H](CC(C)C)C(=O)N[C@@H](CO)C(=O)N[C@@H](CCCNC(=N)N)C(=O)N[C@@H](CC(C)C)C(=O)N[C@@H](CO)C(=O)N[C@@H](CO)C(=O)N[C@@H](CCCCN)C(=O)N[C@@H](CCCNC(=N)N)C(=O)N[C@H](C(=O)O)[C@@H](C)O [NaVi4] (H-GSSSRSCRCIRLSRLSSKRT-OH; N-terminus and C-terminus assumed)
>128/>128/>128 ug/mL: MIC (ug/mL) S. Enteritidis [1, 2] | MIC (ug/mL) S. aureus (S. aureus ATCC 29213; ATCC 29213) | MIC (ug/mL) E. coli (E. coli ATCC 25922; ATCC 25922)

CC[C@H](C)[C@H](NC(=O)[C@@H](N)Cc1ccccc1)C(=O)N[C@@H](CC(C)C)C(=O)N[C@@H](Cc1c[nH]cn1)C(=O)N[C@@H](C)C(=O)N[C@@H](CCCCN)C(=O)N[C@@H](CCCCN)C(=O)N[C@H](C(=O)N[C@@H](CCCNC(=N)N)C(=O)N[C@@H](CO)C(=O)N[C@@H](C)C(=O)N[C@@H](CCCCN)C(=O)O)[C@@H](C)O [VeSi1, FILHAKKTRSAK] (H-FILHAKKTRSAK-OH; N-terminus and C-terminus assumed)
>128/>128/>128 ug/mL: MIC (ug/mL) S. Enteritidis [1, 2] | MIC (ug/mL) S. aureus (S. aureus ATCC 29213; ATCC 29213) | MIC (ug/mL) E. coli (E. coli ATCC 25922; ATCC 25922)

CC[C@H](C)[C@H](NC(=O)CNC(=O)[C@H](CO)NC(=O)[C@@H](NC(=O)[C@H](CC(C)C)NC(=O)CN)[C@@H](C)CC)C(=O)N[C@@H](CC(C)C)C(=O)NCC(=O)N[C@@H](C)C(=O)NCC(=O)N[C@@H](CCCCN)C(=O)N[C@@H](CCCCN)C(=O)O [OdMa8, GLISGILGAGKK] (H-GLISGILGAGKK-OH; N-terminus and C-terminus assumed)
>128/>128/>128 ug/mL: MIC (ug/mL) S. Enteritidis ([1]; Table 14, second value of the cell, three independent experiments, highest concentration tested 128) | MIC (ug/mL) S. aureus (S. aureus ATCC 29213; Table 14, third value of the cell, three independent experiments, highest concentration tested 128) | MIC (ug/mL) E. coli (E. coli ATCC 25922; Table 14, first value of the cell, three independent experiments, highest concentration tested 128)
